Series [1] addresses T1, IP receptor (Homo sapiens, UniProt P43119).
T1 construct: HEL cells were collected with centrifugation and washed with cAMP assay buffer; endogenous in cells; host or cells: HEL 92.1.7 (human erythroleukemia, ATCC)
The series can be described thus: Iloprost-induced cAMP production assay in HEL cells (Assay 2). Particulars: IP receptor antagonist assay, compounds of about 40 to 90% purity, read-out: Activity grade assay 2. The series is classed as cell-based. As to the method:
[Iloprost-Induced cAMP Production Assay in HEL Cells] (Assay 2)
HEL cells were collected with centrifugation and washed with cAMP assay buffer (CAB: Hank's balanced salt solution, 17 mM Hepes, 0.1% bovine serum albumin, 1 mM IBMX, 0.4% DMSO, and 1 mM L-ascorbic acid sodium salt (pH 7.4)). Cells were suspended at the density of 2.5×10^5 cells/ml in CAB, and twenty thousand cells in 80 μl aliquot of cell suspension were put in a well of 96 well plate (Falcon). Then, 10 μl of compound solution diluted with 1% DMSO in CAB or buffer alone was added. The plate was incubated at 37° C. for 30 min. Then, another 10 μl containing 100 nM iloprost in CAB or buffer alone was added and further incubated at 37° C. for 30 min. cAMP content in the well was measured by a cAMP ELISA kit (Applied Biosystems).
A general note: cAMP levels reflect the balance of adenylyl cyclase and phosphodiesterase activity.

T1 sequence (P43119 whole entry): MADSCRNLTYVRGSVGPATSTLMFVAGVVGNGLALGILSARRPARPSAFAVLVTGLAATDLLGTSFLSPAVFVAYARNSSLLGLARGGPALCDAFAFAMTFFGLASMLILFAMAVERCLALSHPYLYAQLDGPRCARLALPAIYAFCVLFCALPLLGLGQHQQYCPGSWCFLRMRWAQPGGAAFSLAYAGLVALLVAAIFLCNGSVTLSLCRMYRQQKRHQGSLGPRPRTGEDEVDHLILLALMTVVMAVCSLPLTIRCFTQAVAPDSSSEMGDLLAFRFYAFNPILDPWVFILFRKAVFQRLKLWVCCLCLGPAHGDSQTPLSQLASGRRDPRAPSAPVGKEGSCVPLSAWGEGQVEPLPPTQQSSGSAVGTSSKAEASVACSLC

By melting point is commonly meant the temperature of the solid-liquid transition. For the compound `O=C(/C=C/c1ccc(COc2ccccc2)cc1)NC(Cc1ccccc1)C(=O)O` (centres unmarked) [Example 1, N-(4-phenoxymethylcinnamoyl)phenylalanine], the melting point came to 205 °C. Also, the IC50 in series [1] is under 100 nM.

Take `O=C(CCc1ccc(COc2ccccc2)cc1)N[C@@H](Cc1ccccc1)C(=O)O` [Example 2, N-[3-(4-Phenoxymethylphenyl)propionyl]phenylalanine]: the melting point fell in the range of 173 to 174 °C. Also, the IC50 in series [1] is under 100 nM.

In turn, `O=C(C#Cc1ccc(COc2ccccc2)cc1)N[C@@H](Cc1ccccc1)C(=O)O` [Example 3, N-(4-Phenoxymethylphenylpropioloyl)phenylalanine] registered a melting point of 146 °C. In addition, the IC50 in series [1] was under 100 nM.

The compound `O=C(/C=C/c1ccc(OCc2ccccc2)cc1)NC(Cc1ccccc1)C(=O)O` (centres unmarked) [Example 4, N-(4-Benzyloxycinnamoyl)phenylalanine] returned a melting point of 220 °C. Moreover, in series [1], the IC50 was under 100 nM.

These data come from patent publication US20060135613A1, “Carboxamides derivatives” (Bayer Healthcare AG, priority 2002, published 2006).
